Experimental data taken from publication PMC5843908, “Detection of PRMT1 inhibitors with stopped flow fluorescence” (Signal Transduction and Targeted Therapy, 2018).

Experiments:
PRMT1 [1] = tested on: PRMT1; set-up: method as in earlier work; conditions: binary binding to PRMT1; ref 2 (supplement; Feng et al. 2011); cited from earlier work
PRMT1 [2] = target: PRMT1 (Homo sapiens, UniProt Q99873); experiment: Stopped flow fluorescence assay of PRMT1 inhibition ([PRMT1] 0.2 µM, [SAM] 3.5 µM, [H4FL] 0.4 µM); format: biochemical;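 note: Stopped-flow traces of fluorescent H4FL peptide quenched on binding PRMT1 and restored on release, recorded 900 s, averaged over repeated drives and fit to a double-exponential model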
Chain of PRMT1 (Homo sapiens, UniProt Q99873) (Q99873 29-371): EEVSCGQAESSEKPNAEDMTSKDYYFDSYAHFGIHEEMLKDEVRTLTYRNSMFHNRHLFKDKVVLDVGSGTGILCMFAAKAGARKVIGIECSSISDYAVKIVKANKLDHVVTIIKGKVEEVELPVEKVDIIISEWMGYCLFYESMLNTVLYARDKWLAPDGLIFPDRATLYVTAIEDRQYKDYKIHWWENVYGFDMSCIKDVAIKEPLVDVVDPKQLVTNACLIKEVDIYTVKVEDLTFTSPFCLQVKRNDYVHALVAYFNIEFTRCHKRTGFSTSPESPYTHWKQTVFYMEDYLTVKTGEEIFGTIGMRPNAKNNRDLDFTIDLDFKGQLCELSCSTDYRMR
Text: To obtain the IC50 of a specific inhibitor, the relative activities of the enzyme in presence of different concentrations of the inhibitor are required (equation 1).[37] […] By adding different concentrations of the inhibitor to the reaction mixture, the relative activity of the enzyme can be obtained by normalizing K to the reaction rate without the inhibitor, and then calculate the IC50 value using equation 1. In our stopped flow fluorescence assay, the reaction rate of Phase I and Phase II can be obtained by approximating and deriving the double-exponential equation (equation 2). In Phase I, during a very short period of time (where t is small), the curve is nearly linear, and the exponential equation can be approximately described as F1 = a · (−k1) · t. Therefore, the derivation of F1 equals –k1∙a, which is the slope of Phase I. Similarly, the curve of Phase II at early stage can be approximately described as F2 = b · (−k2) · t. This derivation of F2 equals –k2∙b, which is the slope of Phase II. The slopes at various inhibitor concentrations, normalized to the slope in the absence of inhibitor, can be used to obtain the corresponding relative enzyme activity from which the potency value (IC50) of the inhibitor can be calculated with equation 1.
In a stopped flow fluorescence assay, the binding of H4FL to PRMT1 (or the PRMT1—cofactor complex) quenches the peptide fluorescence, while release of the peptide restores the fluorescence. […] The widths of the entrance and exit slits of the monochromator were set to 0.5 mm. An equal volume of samples from two syringes was driven into the observation cell for mixing measurements. The H4FL concentration in all experiments was 0.4 μM. […] The fluorescent signal was recorded for 900 seconds, with 10,000 data points in total. Data from four to six drives were collected and averaged for each curve.
After averaging the shot data, the association time courses were fitted to a double-exponential function (equation 2) using GraphPad Prism (CA, USA). […] F is the fluorescence intensity at time t, k1, and k2 are the rate constants for Phase I and Phase II, a is the amplitude of the fluorescence change for k1, and b is the amplitude of the fluorescence change for k2. Simulation curves based on the values of a, b, k1, and k2 at fixed c = 1 were produced using Matlab. The IC50 value of inhibitors is determined by equation 1 using GraphPad Prism (CA, USA).

acetyl -SGRme2aGKGGKGK(FL)GKGGAKRHRK [H4FLme2]
koff (PRMT1 [1]): 319 s⁻¹
kon (PRMT1 [1]): 2.6e+07 M⁻¹ s⁻¹

acetyl-SGRme2aGKGGKGLGKGGAKRHRKVL [H4R3me2a]
-b·k2 (slope of Phase II) (PRMT1 [2]; [H4R3Me2a] 0.025 µM): 0.000708 ± 1.5e-06 s⁻¹
a (amplitude, Phase I) (PRMT1 [2]; [H4R3Me2a] 0.025 µM): 0.1544 ± 3.91E-04
a·k1 (slope of Phase I) (PRMT1 [2]; [H4R3Me2a] 0.025 µM): 0.0108 ± 5.74e-05 s⁻¹
b (amplitude, Phase II) (PRMT1 [2]; [H4R3Me2a] 0.025 µM): -0.1795 ± 1.47E-04
k1 (rate constant, Phase I) (PRMT1 [2]; [H4R3Me2a] 0.025 µM): 0.06982 ± 3.27E-04 s^-1
k2 (rate constant, Phase II) (PRMT1 [2]; [H4R3Me2a] 0.025 µM): 0.003946 ± 7.72E-06 s^-1
-b·k2 (slope of Phase II) (PRMT1 [2]; [H4R3Me2a] 0.05 µM): 0.00064 ± 1.51e-06 s⁻¹
a (amplitude, Phase I) (PRMT1 [2]; [H4R3Me2a] 0.05 µM): 0.1589 ± 4.16E-04
a·k1 (slope of Phase I) (PRMT1 [2]; [H4R3Me2a] 0.05 µM): 0.0106 ± 5.8e-05 s⁻¹
b (amplitude, Phase II) (PRMT1 [2]; [H4R3Me2a] 0.05 µM): -0.1863 ± 1.43E-04
k1 (rate constant, Phase I) (PRMT1 [2]; [H4R3Me2a] 0.05 µM): 0.06665 ± 3.21E-04 s^-1
k2 (rate constant, Phase II) (PRMT1 [2]; [H4R3Me2a] 0.05 µM): 0.003437 ± 7.65E-06 s^-1
-b·k2 (slope of Phase II) (PRMT1 [2]; [H4R3Me2a] 0.1 µM): 0.000608 ± 1.59e-06 s⁻¹
a (amplitude, Phase I) (PRMT1 [2]; [H4R3Me2a] 0.1 µM): 0.1731 ± 3.91E-04
a·k1 (slope of Phase I) (PRMT1 [2]; [H4R3Me2a] 0.1 µM): 0.00927 ± 4.52e-05 s⁻¹
b (amplitude, Phase II) (PRMT1 [2]; [H4R3Me2a] 0.1 µM): -0.1960 ± 1.50E-04
k1 (rate constant, Phase I) (PRMT1 [2]; [H4R3Me2a] 0.1 µM): 0.05356 ± 2.31E-04 s^-1
k2 (rate constant, Phase II) (PRMT1 [2]; [H4R3Me2a] 0.1 µM): 0.003104 ± 7.73E-06 s^-1
-b·k2 (slope of Phase II) (PRMT1 [2]; [H4R3Me2a] 0.25 µM): 0.000613 ± 1.75e-06 s⁻¹
a (amplitude, Phase I) (PRMT1 [2]; [H4R3Me2a] 0.25 µM): 0.1692 ± 4.25E-04
a·k1 (slope of Phase I) (PRMT1 [2]; [H4R3Me2a] 0.25 µM): 0.00914 ± 4.96e-05 s⁻¹
b (amplitude, Phase II) (PRMT1 [2]; [H4R3Me2a] 0.25 µM): -0.1883 ± 1.69E-04
k1 (rate constant, Phase I) (PRMT1 [2]; [H4R3Me2a] 0.25 µM): 0.054 ± 2.60E-04 s^-1
k2 (rate constant, Phase II) (PRMT1 [2]; [H4R3Me2a] 0.25 µM): 0.003253 ± 8.83E-06 s^-1
-b·k2 (slope of Phase II) (PRMT1 [2]; [H4R3Me2a] 0.5 µM): 0.000482 ± 2.06e-06 s⁻¹
a (amplitude, Phase I) (PRMT1 [2]; [H4R3Me2a] 0.5 µM): 0.1282 ± 4.32E-04
a·k1 (slope of Phase I) (PRMT1 [2]; [H4R3Me2a] 0.5 µM): 0.00584 ± 4.38e-05 s⁻¹
b (amplitude, Phase II) (PRMT1 [2]; [H4R3Me2a] 0.5 µM): -0.1431 ± 2.10E-04
k1 (rate constant, Phase I) (PRMT1 [2]; [H4R3Me2a] 0.5 µM): 0.04557 ± 3.06E-04 s^-1
k2 (rate constant, Phase II) (PRMT1 [2]; [H4R3Me2a] 0.5 µM): 0.00337 ± 1.35E-05 s^-1
-b·k2 (slope of Phase II) (PRMT1 [2]; [H4R3Me2a] 1 µM): 0.000195 ± 1.96e-06 s⁻¹
a (amplitude, Phase I) (PRMT1 [2]; [H4R3Me2a] 1 µM): 0.1156 ± 3.30E-04
a·k1 (slope of Phase I) (PRMT1 [2]; [H4R3Me2a] 1 µM): 0.0041 ± 2.6e-05 s⁻¹
b (amplitude, Phase II) (PRMT1 [2]; [H4R3Me2a] 1 µM): -0.1396 ± 5.20E-04
k1 (rate constant, Phase I) (PRMT1 [2]; [H4R3Me2a] 1 µM): 0.0355 ± 2.01E-04 s^-1
k2 (rate constant, Phase II) (PRMT1 [2]; [H4R3Me2a] 1 µM): 0.001394 ± 1.31E-05 s^-1
-b·k2 (slope of Phase II) (PRMT1 [2]; [H4R3Me2a] 2 µM): 0.000103 ± 2.25e-06 s⁻¹
a (amplitude, Phase I) (PRMT1 [2]; [H4R3Me2a] 2 µM): 0.0723 ± 3.03E-04
a·k1 (slope of Phase I) (PRMT1 [2]; [H4R3Me2a] 2 µM): 0.00179 ± 1.72e-05 s⁻¹
b (amplitude, Phase II) (PRMT1 [2]; [H4R3Me2a] 2 µM): -0.07524 ± 5.65E-04
k1 (rate constant, Phase I) (PRMT1 [2]; [H4R3Me2a] 2 µM): 0.02475 ± 2.15E-04 s^-1
k2 (rate constant, Phase II) (PRMT1 [2]; [H4R3Me2a] 2 µM): 0.001365 ± 2.82E-05 s^-1

acetyl-SGRmeGKGGKGK(FL)GKGGAKRHRK [H4FLme1]
koff (PRMT1 [1]): 292 s⁻¹
kon (PRMT1 [1]): 2.3e+07 M⁻¹ s⁻¹
